# ChEMBL document CHEMBL1201862, “PubChem BioAssay data set” (2004)
#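 The compound was tested at five concentrations on cells cultured in 96-well plates, with a 48-hour exposure period. GI50 is the concentration that inhibits growth by half.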 The source made the active and inactive calls. Cut-off read from the data, not from the text of the source: active = GI50 up to about 1.1 µM and inactive = higher.
# Key:
# Test in all cases: NCI-60 cell line screen, 48 h
# 786-0 = test system: 786-0
# A498 = test system: A498
# A549 = test system: A549
# ACHN = test system: ACHN
# BT-549 = test system: BT-549
# CAKI-1 = test system: CAKI-1
# CCRF-CEM = test system: CCRF-CEM
# COLO 205 = test system: COLO 205
# DU-145 = test system: DU-145
# EKVX = test system: EKVX
# HCC 2998 = test system: HCC 2998
# HCT-116 = test system: HCT-116
# HCT-15 = test system: HCT-15
# HL-60 = test system: HL-60
# HOP-62 = test system: HOP-62
# HOP-92 = test system: HOP-92
# HT-29 = test system: HT-29
# Hs-578T = test system: Hs-578T
# IGROV-1 = test system: IGROV-1
# K562 = test system: K562
# KM12 = test system: KM12
# M14 = test system: M14
# MCF7 = test system: MCF7
# MDA-MB-231 = test system: MDA-MB-231
# MDA-MB-435 = test system: MDA-MB-435
# MDA-N = test system: MDA-N
# MOLT-4 = test system: MOLT-4
# Malme-3M = test system: Malme-3M
# NCI-H226 = test system: NCI-H226
# NCI-H23 = test system: NCI-H23
# NCI-H460 = test system: NCI-H460
# NCI-H522 = test system: NCI-H522
# OVCAR-4 = test system: OVCAR-4
# OVCAR-5 = test system: OVCAR-5
# PC-3 = test system: PC-3
# RPMI-8226 = test system: RPMI-8226
# RXF 393 = test system: RXF 393
# SF-268 = test system: SF-268
# SF-295 = test system: SF-295
# SK-MEL-28 = test system: SK-MEL-28
# SK-MEL-2 = test system: SK-MEL-2
# SK-MEL-5 = test system: SK-MEL-5
# SK-OV-3 = test system: SK-OV-3
# SN12C = test system: SN12C
# SNB-19 = test system: SNB-19
# SNB-75 = test system: SNB-75
# SR = test system: SR
# SW-620 = test system: SW-620
# T47D = test system: T47D
# TK-10 = test system: TK-10
# U-251 = test system: U-251
# UACC-257 = test system: UACC-257
# UACC-62 = test system: UACC-62
# UO-31 = test system: UO-31
# LOX IMVI = test system: LOX IMVI
# NCI/ADR-RES = test system: NCI/ADR-RES
# OVCAR-3 = test system: OVCAR-3
# OVCAR-8 = test system: OVCAR-8
# SF-539 = test system: SF-539
structure (smiles),measurement,setting,value
O=C(O)CN1CCNCCN(CP(=O)(O)O)CC1,GI50,786-0,4.83 µM (inactive)
same,GI50,A498,> 19.7 µM (inactive)
same,GI50,A549,4.89 µM (inactive)
same,GI50,ACHN,> 100 µM (inactive)
same,GI50,BT-549,> 100 µM (inactive)
same,GI50,CAKI-1,> 100 µM (inactive)
same,GI50,CCRF-CEM,4.94 µM (inactive)
same,GI50,COLO 205,2.84 µM (inactive)
same,GI50,DU-145,> 100 µM (inactive)
same,GI50,EKVX,13.2 µM (inactive)
same,GI50,HCC 2998,3.28 µM (inactive)
same,GI50,HCT-116,3.87 µM (inactive)
same,GI50,HCT-15,4.25 µM
same,GI50,HL-60,3.22 µM (inactive)
same,GI50,HOP-62,> 100 µM (inactive)
same,GI50,HOP-92,22.3 µM (inactive)
same,GI50,HT-29,2.02 µM (inactive)
same,GI50,Hs-578T,> 30.1 µM (inactive)
same,GI50,IGROV-1,4.15 µM (inactive)
same,GI50,K562,3.92 µM (inactive)
same,GI50,KM12,5.47 µM (inactive)
same,GI50,M14,16.6 µM (inactive)
same,GI50,MCF7,6.22 µM (inactive)
same,GI50,MDA-MB-231,> 70.1 µM (inactive)
same,GI50,MDA-MB-435,> 53 µM (inactive)
same,GI50,MDA-N,5.35 µM (inactive)
same,GI50,MOLT-4,4.34 µM (inactive)
same,GI50,Malme-3M,1.75 µM (inactive)
same,GI50,NCI-H226,> 39.1 µM (inactive)
same,GI50,NCI-H23,> 100 µM (inactive)
same,GI50,NCI-H460,3.44 µM (inactive)
same,GI50,NCI-H522,2.58 µM (inactive)
same,GI50,OVCAR-4,24.6 µM (inactive)
same,GI50,OVCAR-5,6.52 µM (inactive)
same,GI50,PC-3,9.73 µM (inactive)
same,GI50,RPMI-8226,5.52 µM (inactive)
same,GI50,RXF 393,6.89 µM (inactive)
same,GI50,SF-268,22.3 µM (inactive)
same,GI50,SF-295,26.2 µM (inactive)
same,GI50,SK-MEL-28,> 100 µM (inactive)
same,GI50,SK-MEL-2,7.03 µM (inactive)
same,GI50,SK-MEL-5,4.28 µM (inactive)
same,GI50,SK-OV-3,11.8 µM (inactive)
same,GI50,SN12C,> 100 µM (inactive)
same,GI50,SNB-19,> 100 µM (inactive)
same,GI50,SNB-75,14.2 µM (inactive)
same,GI50,SR,> 20.2 µM (inactive)
same,GI50,SW-620,4.49 µM (inactive)
same,GI50,T47D,> 100 µM (inactive)
same,GI50,TK-10,> 37.2 µM (inactive)
same,GI50,U-251,> 24.3 µM (inactive)
same,GI50,UACC-257,> 33.8 µM (inactive)
same,GI50,UACC-62,8.69 µM (inactive)
same,GI50,UO-31,53.2 µM (inactive)
COc1cccc(C2c3cc4c(cc3OC(N3CCOCC3)C2C)OCO4)c1 (stereo not given),GI50,A549,12.9 µM (inactive)
same,GI50,ACHN,14.7 µM (inactive)
same,GI50,BT-549,3.39 µM (inactive)
same,GI50,COLO 205,11.3 µM (inactive)
same,GI50,DU-145,31.8 µM (inactive)
same,GI50,EKVX,26.7 µM (inactive)
same,GI50,HCT-116,13.2 µM (inactive)
same,GI50,HCT-15,6.31 µM
same,GI50,HOP-62,16.2 µM (inactive)
same,GI50,HOP-92,25.5 µM (inactive)
same,GI50,HT-29,4.68 µM (inactive)
same,GI50,Hs-578T,13.9 µM (inactive)
same,GI50,IGROV-1,15 µM (inactive)
same,GI50,K562,3.1 µM (inactive)
same,GI50,LOX IMVI,5.28 µM (inactive)
same,GI50,M14,7.05 µM (inactive)
same,GI50,MCF7,6.61 µM (inactive)
same,GI50,MDA-MB-231,35.1 µM (inactive)
same,GI50,MDA-N,3.07 µM (inactive)
same,GI50,MOLT-4,2.7 µM (inactive)
same,GI50,Malme-3M,10.5 µM (inactive)
same,GI50,NCI-H226,15.6 µM (inactive)
same,GI50,NCI-H460,14.2 µM (inactive)
same,GI50,NCI-H522,8.24 µM (inactive)
same,GI50,NCI/ADR-RES,13.7 µM (inactive)
same,GI50,OVCAR-3,7.74 µM (inactive)
same,GI50,OVCAR-4,14.7 µM (inactive)
same,GI50,OVCAR-5,27 µM (inactive)
same,GI50,OVCAR-8,23.4 µM (inactive)
same,GI50,PC-3,5.53 µM (inactive)
same,GI50,RPMI-8226,> 100 µM (inactive)
same,GI50,SF-268,16.7 µM (inactive)
same,GI50,SF-295,9.64 µM (inactive)
same,GI50,SK-MEL-2,12.2 µM (inactive)
same,GI50,SK-MEL-5,4.37 µM (inactive)
same,GI50,SK-OV-3,17.9 µM (inactive)
same,GI50,SN12C,24.3 µM (inactive)
same,GI50,SNB-19,20.5 µM (inactive)
same,GI50,SNB-75,28.3 µM (inactive)
same,GI50,SR,9.1 µM (inactive)
same,GI50,SW-620,3.19 µM (inactive)
same,GI50,T47D,27.5 µM (inactive)
same,GI50,UACC-257,14.8 µM (inactive)
same,GI50,UACC-62,8.47 µM (inactive)
same,GI50,UO-31,12.8 µM (inactive)
O=c1cc(O)c1=O,GI50,A498,> 100 µM (inactive)
same,GI50,A549,> 100 µM (inactive)
same,GI50,ACHN,> 100 µM (inactive)
same,GI50,BT-549,> 100 µM (inactive)
same,GI50,CAKI-1,> 100 µM (inactive)
same,GI50,CCRF-CEM,> 100 µM (inactive)
same,GI50,COLO 205,> 100 µM (inactive)
same,GI50,DU-145,> 100 µM (inactive)
same,GI50,EKVX,> 100 µM (inactive)
same,GI50,HCC 2998,> 100 µM (inactive)
same,GI50,HCT-116,> 100 µM (inactive)
same,GI50,HCT-15,> 100 µM
same,GI50,HL-60,> 100 µM (inactive)
same,GI50,HOP-62,> 100 µM (inactive)
same,GI50,HOP-92,> 100 µM (inactive)
same,GI50,HT-29,> 100 µM (inactive)
same,GI50,Hs-578T,> 100 µM (inactive)
same,GI50,IGROV-1,> 100 µM (inactive)
same,GI50,K562,> 100 µM (inactive)
same,GI50,KM12,> 100 µM (inactive)
same,GI50,LOX IMVI,> 100 µM (inactive)
same,GI50,M14,> 100 µM (inactive)
same,GI50,MCF7,> 100 µM (inactive)
same,GI50,MDA-MB-231,> 10 µM (inactive)
same,GI50,MDA-MB-435,> 100 µM (inactive)
same,GI50,MDA-N,> 100 µM (inactive)
same,GI50,MOLT-4,> 100 µM (inactive)
same,GI50,Malme-3M,> 100 µM (inactive)
same,GI50,NCI-H226,> 100 µM (inactive)
same,GI50,NCI-H23,> 100 µM (inactive)
same,GI50,NCI-H460,> 100 µM (inactive)
same,GI50,NCI-H522,> 100 µM (inactive)
same,GI50,OVCAR-3,> 100 µM (inactive)
same,GI50,OVCAR-4,> 100 µM (inactive)
same,GI50,OVCAR-5,> 100 µM (inactive)
same,GI50,OVCAR-8,> 100 µM (inactive)
same,GI50,PC-3,> 100 µM (inactive)
same,GI50,RPMI-8226,> 100 µM (inactive)
same,GI50,SF-268,61.2 µM (inactive)
same,GI50,SF-295,> 100 µM (inactive)
same,GI50,SF-539,> 100 µM (inactive)
same,GI50,SK-MEL-28,> 100 µM (inactive)
same,GI50,SK-MEL-2,> 100 µM (inactive)
same,GI50,SK-MEL-5,> 100 µM (inactive)
same,GI50,SK-OV-3,> 100 µM (inactive)
same,GI50,SN12C,> 100 µM (inactive)
same,GI50,SNB-19,> 100 µM (inactive)
same,GI50,SNB-75,> 100 µM (inactive)
same,GI50,SR,> 100 µM (inactive)
same,GI50,SW-620,> 100 µM (inactive)
same,GI50,T47D,> 100 µM (inactive)
same,GI50,TK-10,> 100 µM (inactive)
same,GI50,U-251,> 100 µM (inactive)
same,GI50,UACC-257,> 100 µM (inactive)
same,GI50,UACC-62,> 100 µM (inactive)
same,GI50,UO-31,> 100 µM (inactive)
